Experimental data from patent US10730883B2 (AbbVie Inc., priority 2015, dated 2020).
In brackets after ≈: the same amount, converted by molar mass.

Key:
[1] = Solubility of solid state forms; assay type: physicochemical; conditions: Amorphous Freebase: relative to the corresponding crystalline forms
[2] = Hygroscopicity / moisture sorption isotherm of solid state forms; assay type: physicochemical
From the text: FIG. 6A is a moisture sorption isotherm corresponding to the Amorphous Freebase (via dehydration).
FIG. 6C is a moisture sorption isotherm corresponding to the Tartrate Hydrate.
FIG. 6D is a moisture sorption isotherm corresponding to the Freebase Anhydrate Form D.
In one embodiment, the Tartrate Hydrate has a moisture sorption isotherm profile showing a weight gain of about 1% to about 2% when relative humidity is increased from about 10% relative humidity to about 90% relative humidity at a temperature of 25° C.

[3] = Chemical stability of solid state forms in closed vials at controlled temperature and relative humidity; assay type: physicochemical
Protocol: (§1) The Amorphous Freebase, however, is hygroscopic and can comprise as much as 12% by weight water at 25° C./90% relative humidity. Environmental controls potentially are required to ensure appropriate control of potency and water content during storage, dispensing, and handling of the Amorphous Freebase.
(§2) The Tartrate Hydrate, however, potentially will convert to an amorphous tartrate below 10% relative humidity, when heated, or when compressed or under shear.

[4] = Equilibrium solubility; assay type: physicochemical
Protocol: After equilibration, the mixtures were inspected to assure that the amount of excess solid was sufficient to permit re-characterization. […] The pH of aqueous suspensions was determined after equilibration. The solid phase was separated from the liquid phase by centrifugation at 3300 rpm at equilibration temperatures (i.e., 25° C. or 37° C.). The supernatant was then filtered (13 mm Acrodisc® syringe filter with 0.45μ GHP membrane, Pall® Life Sciences, Ann Arbor, Mich.) to discard the initial 2 mL (to saturate filter) and capture the last 1 mL for analysis. The filtrate was diluted as needed for quantification of the material studied by HPLC method (as detailed elsewhere herein). The physical form of the recovered solid was characterized by powder X-ray diffraction to examine whether or not phase change had occurred

[5] = Stability of solid state forms to light and peroxide; assay type: physicochemical
Protocol: as §1, §2

[6] = Solid state accelerated stability study; assay type: physicochemical; conditions: for Growth of degradation products: open and closed glass vials
Protocol: Samples (approximately 1 mg to 2 mg) of the solid state form were weighed into glass vials and tested as described below.

[7] = Bioavailability of solid state forms; assay type: in vivo; conditions: relative to the corresponding crystalline forms
[8] = Moisture sorption isotherm; assay type: physicochemical; conditions: 90% relative humidity at 25° C.
Protocol: Moisture vapor isotherm data were collected with a DVS Advantage (Surface Measurement Systems Ltd, Alperton, United Kingdom). The sample powder (5 mg to 20 mg) was loaded on a tared pan of the DVS Advantage. The moisture sorption isotherm data were collected from 30-0-90-0-30% relative humidity in 10% relative humidity intervals. For each step, the dm/dt criteria was 0.001% over 5 minutes, a minimum dm/dt time of 30 minutes, and a maximum dm/dt of 120 minutes. Data was collected isothermally at 25° C. with a nitrogen flow rate of 200 cm^3/minute. The post DVS sample was kept at approximately 30% relative humidity before PXRD analysis.

[9] = general statement on the solid state form

CC[C@@H]1CN(C(=O)NCC(F)(F)F)C[C@@H]1c1cnc2cnc3[nH]ccc3n12 [Amorphous Freebase, (3S,4R)-3-ethyl-4-(3H-imidazo[1,2-a]pyrrolo[2,3-e]pyrazin-8-yl)-N-(2,2,2-trifluoroethyl)pyrrolidine-1-carboxamide]
Solubility [1]: greater solubility | water content (hygroscopicity) ([2]; 25° C./90% relative humidity): ≤ 12 % by weight | hygroscopicity [2, 9]: hygroscopic | degradation observed in closed vials ([3]; closed vials, 30° C./65% relative humidity and 40° C./75% relative humidity over 12 weeks, 50° C./75% relative humidity over 6 weeks): no degradation | chemical stability [3, 9]: acceptable chemical stability | Solubility ([4]; FasSIF (pH 6.5 at 37° C.)): 1140 µg/mL (≈ 3 mM) | Solubility ([4]; FedSIF (pH 5.0 at 37° C.)): 2130 µg/mL (≈ 5.6 mM) | Solubility ([4]; pH 1 at 25° C.): >3500 µg/mL | Solubility ([4]; pH 7.4 at 25° C.): 680 µg/mL (≈ 1.79 mM) | stability to light and peroxide [5]: acceptable stability | Growth of degradation products ([6]; 40° C./75% relative humidity, up to 24 weeks): no growth of degradation products | Growth of degradation products ([6]; 50° C./75% relative humidity, up to six weeks): no growth of degradation products | chemical stability ([6]; solid state accelerated stability study): acceptable | Change in attributes evaluated (description, crystal form, assay, impurities and water content) ([6]; storage conditions of the accelerated stability study): No material change | bioavailability [7]: increased bioavailability | Moisture sorption (reversibly sorbs up to) [8]: up to 13%
